The assay can be described thus: Dextran sulfate colitis model of inflammatory bowel disease in mice. The following applies: FIG. 18; all doses 1.34 μmol/kg; N=8. The format is in vivo, mouse. An excerpt:
The potential efficacy of a Compound for Inflammatory bowel disease may be modeled as follows. C57 BLK6 or BALBc mice are provided with drinking water containing 2.5% or 2.8% dextran sulfate. Animals are weighed and observed for signs of intestinal disturbance daily. Signs include diarrhea or occult blood. Compound is formulated by mixing with a solution of 0.1 up to 1% citric acid depending on concentration. Compound is provided by oral gavage daily.

Structures are written as SMILES.

For the molecule `CCCCCCCCCCN(C)C1C[C@@H](C)O[C@@H](O[C@@H]2[C@@H](C)[C@H](O[C@H]3C[C@@](C)(OC)[C@@H](O[N+](=O)[O-])[C@H](C)O3)[C@@H](C)C(=O)O[C@H](CC)[C@@](C)(O)[C@H](O)[C@@H](C)N(C)C[C@H](C)C[C@@]2(C)O)[C@@H]1O` (stereo partly shown) [Compound E-3], the “Body weight and clinical score of BALBc mice at day 9 after commencing 2.5% DSS in water” value was “stimulate inflammation”.

The values are drawn from US20230131943A1, “ANTI-INFECTIVE AND ANTI-VIRAL COMPOUNDS AND COMPOSITIONS” (priority 2020, published 2023).
